Literature values as cited in patent US20140045801A1, “PRAMIPEXOLE TRANSDERMAL DELIVERY FOR SEVERE HEADACHES” (MYLAN INC., priority 2012, published 2014).

Settings: free base; moderate lipophilicity

log P: 2.35
SMILES: CCCN[C@H]1CCc2nc(N)sc2C1 [Pramipexole free base, Pramipexole]
